Reference: ChEMBL document CHEMBL5335794, “Discovery of novel multifunctional ligands targeting GABA transporters, butyrylcholinesterase, β-secretase, and amyloid β aggregation as potential treatment of Alzheimer's disease” (Eur J Med Chem, 2023)

Experiments:
[1] = molecular target: T1, Sodium- and chloride-dependent GABA transporter 1 (Mus musculus, UniProt P31648)
[2] = molecular target: Cholinesterase (Equus caballus, UniProt P81908)
Description: Inhibition of equine serum BuChE using butyrylthiocholine iodide as substrate preincubated for 5 mins followed by substrate addition and measured after 5 mins by DTNB reagent based Ellman's method

[3] = molecular target: T2, GABA transporter 2 (Mus musculus, UniProt P31651); assay: Inhibition of mouse GAT2 transfected in HEK293 cells assessed as reduction in [3H]-GABA uptake preincubated for 25 mins followed by [3H]-GABA addition and measured after 10 mins by liquid scintillation counting analysis; format: cell-based
T2 sequence (P31651 whole entry): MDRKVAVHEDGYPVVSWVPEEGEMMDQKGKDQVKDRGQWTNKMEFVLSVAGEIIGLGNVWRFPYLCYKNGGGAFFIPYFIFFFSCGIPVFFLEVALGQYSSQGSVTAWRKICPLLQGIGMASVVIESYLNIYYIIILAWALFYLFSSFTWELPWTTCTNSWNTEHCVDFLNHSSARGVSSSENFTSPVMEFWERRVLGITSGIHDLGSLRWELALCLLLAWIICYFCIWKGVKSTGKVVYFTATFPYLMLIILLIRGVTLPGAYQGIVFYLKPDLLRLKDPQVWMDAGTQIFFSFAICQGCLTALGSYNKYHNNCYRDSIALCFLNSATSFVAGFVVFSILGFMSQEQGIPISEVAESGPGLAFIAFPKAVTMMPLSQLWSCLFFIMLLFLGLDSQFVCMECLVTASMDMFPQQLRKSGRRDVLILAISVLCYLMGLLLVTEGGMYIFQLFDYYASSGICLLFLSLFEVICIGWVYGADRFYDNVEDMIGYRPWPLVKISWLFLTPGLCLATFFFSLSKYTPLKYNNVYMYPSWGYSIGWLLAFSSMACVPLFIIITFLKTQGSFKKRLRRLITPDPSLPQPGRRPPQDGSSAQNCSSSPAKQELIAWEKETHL

[4] = Inhibition of mouse GAT3 transfected in HEK293 cells assessed as reduction in [3H]-GABA uptake preincubated for 25 mins followed by [3H]-GABA addition and measured after 4 mins by liquid scintillation counting analysis; format: cell-based; conditions: for IC50: HEK293
[5] = molecular target: T1, Sodium- and chloride-dependent GABA transporter 1; assay: Inhibition of NO 711 marker binding to mouse GAT1 by LC-ESI-MS/MS based competitive MS binding assay
[6] = molecular target: T1, Sodium- and chloride-dependent GABA transporter 1; assay: Inhibition of mouse GAT1 transfected in HEK293 cells assessed as reduction in [3H]-GABA uptake preincubated for 25 mins followed by [3H]-GABA addition and measured after 4 mins by liquid scintillation counting analysis; format: cell-based
[7] = molecular target: T3, GABA transporter 4 (Mus musculus, UniProt P31650); assay: Inhibition of mouse GAT4 transfected in HEK293 cells assessed as reduction in [3H]-GABA uptake preincubated for 25 mins followed by [3H]-GABA addition and measured after 4 mins by liquid scintillation counting analysis; format: cell-based
T3 sequence (P31650 whole entry): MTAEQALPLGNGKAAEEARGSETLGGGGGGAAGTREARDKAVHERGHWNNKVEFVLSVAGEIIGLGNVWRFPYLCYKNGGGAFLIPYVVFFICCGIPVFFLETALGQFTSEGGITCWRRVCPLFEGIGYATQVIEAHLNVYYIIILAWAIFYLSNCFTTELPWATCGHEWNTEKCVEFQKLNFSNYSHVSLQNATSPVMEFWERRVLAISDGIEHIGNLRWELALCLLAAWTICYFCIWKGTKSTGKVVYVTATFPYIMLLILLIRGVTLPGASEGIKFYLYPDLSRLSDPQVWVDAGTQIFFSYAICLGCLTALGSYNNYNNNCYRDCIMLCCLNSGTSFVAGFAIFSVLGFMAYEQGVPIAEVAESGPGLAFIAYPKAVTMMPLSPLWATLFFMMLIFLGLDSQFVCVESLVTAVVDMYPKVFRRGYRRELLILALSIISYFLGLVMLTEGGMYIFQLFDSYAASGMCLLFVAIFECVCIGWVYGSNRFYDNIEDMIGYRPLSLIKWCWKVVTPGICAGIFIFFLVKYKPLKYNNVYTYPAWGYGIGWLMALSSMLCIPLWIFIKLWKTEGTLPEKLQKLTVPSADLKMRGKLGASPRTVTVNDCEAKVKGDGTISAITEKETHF

[8] = molecular target: Amyloid-beta precursor protein (Homo sapiens) (UniProt P05067); assay: Inhibition of amyloid beta42 (unknown origin) aggregation expressed in Escherichia coli BL21 (DE3) at 10 uM measured every 5 mins by ThT fluorescence based assay relative to control
[9] = molecular target: T4, Beta-secretase 1 (Homo sapiens, UniProt P56817)
[10] = molecular target: Acetylcholinesterase (Electrophorus electricus) (UniProt O42275); assay: Inhibition of electric eel AChE using acetylthiocholine iodide as substrate at 10 uM preincubated for 5 mins followed by substrate addition and measured after 5 mins by DTNB reagent based Ellman's method relative to control; conditions: time 10.0 min
[11] = molecular target: Amyloid-beta precursor protein (Homo sapiens) (UniProt P05067); assay: Inhibition of amyloid beta40 (unknown origin) aggregation at 10 uM measured every 5 mins by ThT fluorescence based assay relative to control
[12] = molecular target: T5, GABA transporter 2 (Mus musculus) (UniProt P31651); assay: Inhibition of mouse GAT2 transfected in HEK293 cells assessed as reduction in [3H]-GABA uptake by measuring residual activity at 100 uM preincubated for 25 mins followed by [3H]-GABA addition and measured after 10 mins by liquid scintillation counting analysis relative to control; format: cell-based; conditions: time 35.0 min
T5 sequence (whole entry): T2 sequence (P31651 whole entry)

[13] = molecular target: T4, Beta-secretase 1; conditions: dose 50.0 µM, time 60.0 min
[14] = molecular target: Sodium- and chloride-dependent GABA transporter 1 (Mus musculus) (UniProt P31648); assay: Inhibition of NO 711 marker binding to mouse GAT1 assessed as residual activity at 100 uM by LC-ESI-MS/MS based competitive MS binding assay relative to control
[15] = molecular target: Cholinesterase (Equus caballus) (UniProt P81908); assay: Inhibition of equine serum BuChE using butyrylthiocholine iodide as substrate at 10 uM preincubated for 5 mins followed by substrate addition and measured after 5 mins by DTNB reagent based Ellman's method relative to control; conditions: time 10.0 min
Cholinesterase (Equus caballus), sequence (P81908 whole entry): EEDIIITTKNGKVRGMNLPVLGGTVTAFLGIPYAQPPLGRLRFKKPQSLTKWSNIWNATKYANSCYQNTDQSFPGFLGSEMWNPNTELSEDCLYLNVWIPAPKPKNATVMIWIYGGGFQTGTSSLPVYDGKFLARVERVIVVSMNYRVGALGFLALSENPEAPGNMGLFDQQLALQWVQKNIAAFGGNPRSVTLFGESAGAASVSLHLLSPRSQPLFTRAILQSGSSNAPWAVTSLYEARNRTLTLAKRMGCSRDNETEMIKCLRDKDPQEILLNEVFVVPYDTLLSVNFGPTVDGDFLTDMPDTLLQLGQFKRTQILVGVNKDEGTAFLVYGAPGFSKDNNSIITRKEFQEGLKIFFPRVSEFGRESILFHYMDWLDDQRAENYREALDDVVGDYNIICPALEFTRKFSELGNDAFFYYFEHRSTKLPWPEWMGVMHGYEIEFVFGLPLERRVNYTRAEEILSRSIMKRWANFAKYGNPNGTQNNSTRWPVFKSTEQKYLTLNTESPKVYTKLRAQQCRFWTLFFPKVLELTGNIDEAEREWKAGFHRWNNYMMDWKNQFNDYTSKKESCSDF

Cholinesterase, sequence (P81908 whole entry): as above
Acetylcholinesterase (Electrophorus electricus), sequence (O42275 24-633 limits assumed): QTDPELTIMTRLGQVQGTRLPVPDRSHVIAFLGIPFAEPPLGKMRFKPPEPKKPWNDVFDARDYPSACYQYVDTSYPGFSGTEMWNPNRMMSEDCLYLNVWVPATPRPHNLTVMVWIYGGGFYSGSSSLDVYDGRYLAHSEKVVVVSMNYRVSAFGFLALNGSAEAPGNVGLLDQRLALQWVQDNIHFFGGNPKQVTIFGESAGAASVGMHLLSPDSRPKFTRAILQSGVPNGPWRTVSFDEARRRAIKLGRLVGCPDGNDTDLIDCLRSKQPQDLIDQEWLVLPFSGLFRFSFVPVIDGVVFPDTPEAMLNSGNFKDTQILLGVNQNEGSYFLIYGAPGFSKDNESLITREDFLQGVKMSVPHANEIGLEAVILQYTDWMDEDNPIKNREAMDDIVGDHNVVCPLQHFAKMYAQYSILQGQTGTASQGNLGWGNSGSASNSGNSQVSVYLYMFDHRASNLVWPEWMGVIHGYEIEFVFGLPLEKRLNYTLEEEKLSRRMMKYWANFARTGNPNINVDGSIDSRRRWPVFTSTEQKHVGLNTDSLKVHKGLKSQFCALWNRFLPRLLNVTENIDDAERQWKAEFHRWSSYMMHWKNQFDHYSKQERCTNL
T4 sequence (P56817 whole entry): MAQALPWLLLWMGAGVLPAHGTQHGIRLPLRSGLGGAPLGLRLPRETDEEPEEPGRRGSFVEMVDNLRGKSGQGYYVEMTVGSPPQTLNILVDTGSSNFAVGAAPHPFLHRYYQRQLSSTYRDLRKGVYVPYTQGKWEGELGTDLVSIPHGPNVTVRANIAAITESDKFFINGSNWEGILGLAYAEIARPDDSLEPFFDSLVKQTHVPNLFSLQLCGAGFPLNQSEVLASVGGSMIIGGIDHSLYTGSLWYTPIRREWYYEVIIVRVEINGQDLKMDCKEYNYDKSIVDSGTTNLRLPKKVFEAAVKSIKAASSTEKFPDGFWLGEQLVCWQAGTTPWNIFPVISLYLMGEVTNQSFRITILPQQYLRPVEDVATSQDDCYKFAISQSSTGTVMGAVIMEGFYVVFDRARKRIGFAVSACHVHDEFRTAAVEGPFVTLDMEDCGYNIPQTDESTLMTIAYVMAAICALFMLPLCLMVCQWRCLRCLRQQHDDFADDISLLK
Amyloid-beta precursor protein (Homo sapiens), sequence (P05067 whole entry): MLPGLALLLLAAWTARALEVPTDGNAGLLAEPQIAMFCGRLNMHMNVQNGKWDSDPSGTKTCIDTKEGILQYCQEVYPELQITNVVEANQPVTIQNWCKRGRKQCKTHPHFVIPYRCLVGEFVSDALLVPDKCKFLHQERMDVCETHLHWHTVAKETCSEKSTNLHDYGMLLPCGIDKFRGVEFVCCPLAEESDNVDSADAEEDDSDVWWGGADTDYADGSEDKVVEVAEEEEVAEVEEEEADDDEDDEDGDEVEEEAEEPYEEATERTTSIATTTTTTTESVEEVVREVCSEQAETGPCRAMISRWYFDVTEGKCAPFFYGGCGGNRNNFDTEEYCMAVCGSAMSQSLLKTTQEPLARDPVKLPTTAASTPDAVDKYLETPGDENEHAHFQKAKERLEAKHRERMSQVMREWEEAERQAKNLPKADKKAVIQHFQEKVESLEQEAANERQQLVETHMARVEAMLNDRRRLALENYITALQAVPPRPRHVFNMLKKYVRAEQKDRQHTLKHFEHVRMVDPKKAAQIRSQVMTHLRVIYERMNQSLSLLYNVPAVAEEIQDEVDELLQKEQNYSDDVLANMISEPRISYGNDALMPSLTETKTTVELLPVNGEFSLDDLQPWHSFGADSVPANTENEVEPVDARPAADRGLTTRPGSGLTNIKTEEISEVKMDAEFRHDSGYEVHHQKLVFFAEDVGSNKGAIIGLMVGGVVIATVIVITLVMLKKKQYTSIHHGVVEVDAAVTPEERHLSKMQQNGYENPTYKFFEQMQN

| SMILES | IC50 [2] [µM] | IC50 ([3]; read-out: pIC50 (converted)) [µM] | Ki [5] [µM] | IC50 ([6]; read-out: pIC50 (converted)) [µM] | IC50 ([7]; read-out: pIC50 (converted)) [µM] | inhibition [8] [%] | IC50 ([4]; read-out: pIC50 (converted)) [µM] | IC50 [9] [µM] | inhibition [10] [%] | inhibition [11] [%] | other results |
| --- | --- | --- | --- | --- | --- | --- | --- | --- | --- | --- | --- |
| CC(CC(=O)O)NCCOCCN1c2ccccc2Sc2ccccc21 (centres undefined) | – | – | – | – | – | – | – | – | – | – | IC50 [1]: 9 µM |
| CC(O)CC(C(=O)NCc1ccccc1)N(C)CC/C=C/c1ccccc1-c1ccccc1 (racemic; form 2) | 3.71 | 15.1 | 24.5 | 44.7 | 41.7 | – | – | – | – | – | pIC50 ([4]; hek293): 4.87 |
| CN(CCOCCN1c2ccccc2Sc2ccccc21)C(CCN)C(=O)NCc1ccccc1 (centres undefined) | 0.35 | – | 67.6 | 15.8 | 15.1 | 34.9 | 10 | 22.9 | < 10 | 96.7 | IC50 ([3]; read-out: IC50): 3 µM |
| CN(CC/C=C/c1ccccc1-c1ccc(Cl)cc1Cl)C(CCN)C(=O)NCc1ccccc1 (centres undefined) | 1.43 | – | 28.2 | – | 7.41 | – | 6.61 | 5.41 | – | – | IC50 ([6]; read-out: IC50): 5.5 µM; Activity [12]: 18% |
| CN(CCOCCn1c2ccccc2c2ccccc21)C(CCN)C(=O)NCc1ccc(F)cc1 (centres undefined) | 0.345 | 20 | – | 33.9 | 18.2 | 30.9 | 17.4 | – | < 10 | 95.3 | inhibition [13]: 78%; Activity [14]: 82% |
| CN(CCC=C1c2ccccc2CCc2ccccc21)C(CCN)C(=O)NCc1ccccc1Cl (centres undefined) | 1.23 | – | – | – | – | – | – | 5.13 | 28 | – | – |
| CN(CCC=C1c2ccccc2CCc2ccccc21)C(CCN)C(=O)NCc1ccccc1 (centres undefined) | 1.47 | – | – | – | – | – | – | 6.68 | 15 | – | – |
| CN(CCOCCN1c2ccccc2Sc2ccccc21)C(CCN)C(=O)NCc1ccc(F)cc1 (centres undefined) | 1.02 | 10.2 | 77.6 | 14.8 | 14.1 | 23.9 | 8.32 | 5.35 | < 10 | 74.7 | – |
| CC(=O)NCCC(C(=O)NCc1ccccc1)N(C)CCOCCN1c2ccccc2Sc2ccccc21 (centres undefined) | – | 19.1 | – | 38 | 25.1 | – | 11.7 | – | < 10 | – | inhibition [13]: 30%; Activity [14]: 82%; inhibition [15]: 58% |
| O=C(NCCCCCCCCNc1c2c(nc3cc(Cl)ccc13)CCCC2)c1ccc2nc(-c3ccc(Cl)cc3)c3c(c2c1)NCCC3 | – | – | – | – | – | 72.1 | – | – | – | 80.8 | – |
| CN(CCC=C1c2ccccc2CCc2ccccc21)C(CCN)C(=O)NCc1ccc(F)cc1 (centres undefined) | 1.21 | – | – | – | – | – | – | 4.88 | 21 | – | – |
| CN(CCOCCn1c2ccccc2c2ccccc21)C(CCN)C(=O)NCc1ccccc1Cl (centres undefined) | 0.204 | 8.32 | 93.3 | 19.5 | 9.33 | 30.2 | 12.9 | – | < 10 | 92.4 | inhibition [13]: 79% |
| CN(CCC=C(c1ccccc1)c1ccccc1)C(=O)C1Cc2c([nH]c3ccccc23)CN1 (centres undefined) | 3.13 | – | 79.4 | 12 | – | – | 4.07 | – | 38 | – | IC50 ([4]; read-out: IC50): 4.1 µM; Activity [12]: 55%; IC50 ([7]; read-out: IC50): 6.3 µM |
| Cc1ccc(CNC(=O)C(CCN)N(C)CCOCCN2c3ccccc3Sc3ccccc32)cc1 (centres undefined) | 3.63 | 7.76 | 40.7 | 11 | 11.5 | – | 7.76 | – | < 10 | – | inhibition [13]: 47% |
| Cc1ccc(CNC(=O)C(CCN)N(C)CCC=C2c3ccccc3CCc3ccccc32)cc1 (centres undefined) | 2.35 | – | – | – | – | – | – | 4.03 | 15 | – | – |
| CN(CCC=C1c2ccccc2-c2ccccc21)C(CCO)C(=O)NCc1ccc(Cl)cc1 (centres undefined) | – | – | – | – | – | – | – | 17.3 | < 10 | – | inhibition [15]: 46% |
| CN(CCC=C1c2ccccc2CCc2ccccc21)C(CCN)C(=O)NCc1ccc(Cl)cc1 (centres undefined) | 2.98 | – | – | – | – | – | – | 29 | 33 | – | – |
| CN(CCOCCN1c2ccccc2Sc2ccccc21)C(CCN)C(=O)NCc1ccccc1Cl (centres undefined) | 0.411 | 6.61 | 57.5 | 12.6 | 8.71 | 27.1 | 6.17 | 5.17 | 14 | 74 | – |
| CN(CCC=C1c2ccccc2-c2ccccc21)C(CCO)C(=O)NCc1ccc(F)cc1 (centres undefined) | 0.978 | – | – | – | – | 21.5 | – | – | < 10 | 77.1 | inhibition [13]: 66% |
| O=C(O)[C@@H]1CCCN(CCOCCN2c3ccccc3Sc3ccccc32)C1 | – | – | – | – | – | – | – | – | – | – | IC50 [1]: 0.3 µM |
| CN(CCC=C1c2ccccc2-c2ccccc21)C(CCO)C(=O)NCc1ccccc1 (centres undefined) | 0.978 | – | – | – | – | 15.8 | – | 19.5 | < 10 | 58.7 | – |
